Patent US11932657B2, “Heterocyclic compound” (priority 2018, dated 2024)

How the values were obtained:
[1] = tested on: immortalized megakaryocyte line (SeV2-MKCL); test: Platelet production: static culturing of immortalized megakaryocyte line; format: cell-based; conditions: compound final concentration 0.1 μM, static culturing 6 to 7 days, control (DMSO) set to 1; platelets = CD41, CD42b and CD42a-positive cells
Method: Test Example 2 (Platelet Production: Static Culturing)
The immortalized megakaryocyte line (SeV2-MKCL) obtained according to the method described in WO 2016/204256 was washed twice with D-PBS(−) and then cultured in medium not containing doxycycline to terminate forced expression. Culturing was implemented by seeding the cells at 1 mL/well in a 24-well plate (#662160 (Greiner Rio-One)) at a seeding density of 1×10^5 cells/mL followed by static culturing in the medium indicated below.
The medium was obtained by adding the following components to IMDM serving as the basal medium (concentrations indicate final concentrations).
Culturing was implemented under conditions of 37° C. and 5% CO2. At the same time, the compound of the present invention (final concentration 0.1 μM) or DMSO (control) was added and cultured for 6 to 7 days. Thereafter, the number of platelets (CD41, CD42b, and CD42a-positive cells) was measured. The measurement method was as shown below. The same procedure was performed with the control.
A portion of the culture supernatant was harvested 6 to 7 days after culturing to terminate gene expression, and suspended with the following antibodies to stain them. eFluor 450-labeled anti-CD42a antibody (#48-0428-42 (eBioscience)) PE-labeled anti-CD42b antibody (#303906 (BioLegend)) APC-labeled anti-CD41 antibody (#303710 (BioLegend)) The number of platelets was counted using FACSVerse manufactured by BD 30 minutes after the stain reaction. In the measurement of the number of platelets, the number of cells was corrected using Flow-count beads (#7547053 (Beckman Coulter)).
The number of platelets produced from one megakaryocyte cell was calculated based on the number of platelets in the sample obtained by the FACS measurement, and the result was defined as platelet production efficiency (PLT/MK) and used for evaluation of drug efficacy of the compound. In addition, the specific activity at the time when the platelet production efficiency of the control was set to 1 was indicated as fold increase.

[2] = molecular target: T1, aryl hydrocarbon receptor (AhR) (Homo sapiens, UniProt P35869); test: AhR reporter gene assay (aryl hydrocarbon receptor antagonist activity, DRE-Luc HepG2 cells, TCDD-stimulated luciferase); format: cell-based
T1 construct: DRE-Luc HepG2 cells subcultured in a 225 cm^2 flask; endogenous in cells; host or cells: HepG2 (ATCC), stably transfected with the reporter hCYP1A1/pGL4.27 (DRE-Luc HepG2)
T1 sequence (P35869 11-848): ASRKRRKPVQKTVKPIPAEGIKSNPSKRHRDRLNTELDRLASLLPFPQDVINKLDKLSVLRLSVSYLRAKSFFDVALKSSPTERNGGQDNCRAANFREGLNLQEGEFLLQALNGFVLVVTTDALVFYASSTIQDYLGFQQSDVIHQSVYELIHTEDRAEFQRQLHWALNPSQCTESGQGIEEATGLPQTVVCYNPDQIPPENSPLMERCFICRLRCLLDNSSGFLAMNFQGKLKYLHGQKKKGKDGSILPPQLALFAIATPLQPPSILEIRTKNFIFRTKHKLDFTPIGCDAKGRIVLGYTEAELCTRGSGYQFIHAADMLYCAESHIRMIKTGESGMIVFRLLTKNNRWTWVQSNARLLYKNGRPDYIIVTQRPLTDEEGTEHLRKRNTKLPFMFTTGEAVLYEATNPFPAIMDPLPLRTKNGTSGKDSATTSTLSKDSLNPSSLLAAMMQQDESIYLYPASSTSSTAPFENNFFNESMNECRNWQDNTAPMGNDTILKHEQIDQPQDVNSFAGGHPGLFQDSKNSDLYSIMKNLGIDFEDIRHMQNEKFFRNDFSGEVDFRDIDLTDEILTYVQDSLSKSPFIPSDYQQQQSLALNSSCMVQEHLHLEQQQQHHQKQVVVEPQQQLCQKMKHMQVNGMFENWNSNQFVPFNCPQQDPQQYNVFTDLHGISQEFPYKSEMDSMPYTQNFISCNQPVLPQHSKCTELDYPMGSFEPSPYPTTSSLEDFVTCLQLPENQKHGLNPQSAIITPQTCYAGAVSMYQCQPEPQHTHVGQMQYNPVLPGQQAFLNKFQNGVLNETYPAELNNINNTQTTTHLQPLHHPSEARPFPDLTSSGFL
Method: Test Example 1 (Aryl Hydrocarbon Receptor Antagonist Activity)
An expression vector, hCYP1A1/pGL4.27 was introduced into HepG2 cells (derived from American Type Culture Collection (ATCC)) that were seeded in 6-well plates (#3810-006 (Iwaki)) at 1.2×10^6 cells/well, using Lipofectamine 3000 (#100022050 (Invitrogen)). Referring to Garrion P M et al., Fundam Appl Toxicol, 30, 194 (1996), the vector hCYP1A1/pGL4.27 incorporated the human CYP1A1 promotor region including dioxin responsive element (DRE) region of the AhR binding region into the XhoI-BglII restriction enzyme site of pGL4.27 (#E8451 (Promega)). After 24 hours, medium-1 was replaced, and after 48 hours, the medium-1 containing hygromycin B (200 to 1000 μg/mL) was subjected to drug treatment. Culturing using the medium containing hygromycin B was continued for about 1 month to clone 24 clones showing drug resistance. A cell line showing high reporter activity was selected (DRE-Luc HepG2) from drug resistant lines using as an indicator luciferase activity (Dual-Glo Luciferase substrate, #E297A (Promega)) relative to an AhR agonist, 2,3,7,8-tetrachlorodibenzo-p-dioxin (TCDD) (#ED-901-B (CIL.)).
DRE-Luc HepG2 cells subcultured in a 225 cm^2 flask (#11-0005 (Iwaki)) were washed with PBS (#1419-144 (Gibco), Lot: 1896207), and thereto was added 8 mL of Trypsin-EDTA (0.05%) (#25300-054 (Gibco)). Thereafter, an excessive liquid was removed from the mixture, and the cells were stood at room temperature for 5 minutes. Thereto was added 10 mL of medium-2, the cells were recovered through a cell strainer (#352350 (Falcon), 70 μm), and the number of cells were then counted using a hemocytometer. A cell suspension was prepared at 3×10^5 cells/mL, 100 μL/well of the cell suspension was seeded into a 96-well white plate (#136101, F96 Microwell (Nunc)), and the cells were then cultured in a CO2 incubator (5% CO2, 37° C.). After 24 hours, the medium was aspirated, and thereto was added 100 μL of an assay medium solution including the compound of the present invention, and the cells were cultured in the CO2 incubator (5% CO2, 37° C.). After 24 hours, 11 μL of an assay medium solution including 5×10^−10 M TCDD (#ED-901-B (CIL.)) was added thereto and the cells were cultured in the CO2 incubator (5% CO2, 37° C.). After 24 hours, 50 μL of a reaction substrate (#E253B, Steady-Glo Luciferase substrate (Promega)) for Firefly Luciferase enzyme reaction was added to each well, and after 5 minute-shaking, the light emission intensity was measured with Wallac ARVO 1420sx (PerkinElmer).

Compound: Cc1cncc(-c2nc(NCCc3ccc(O)c(-c4ccccc4)c3)c3nc4n(c3n2)C(C)(C)CO4)c1 [Example 22]
- Static (vs veh): fold increase of platelet production efficiency (PLT/MK) [1]: 7.3
- IC50 [2]: 9.8 nM

Compound: Cc1cncc(-c2nc(NCCc3ccc(O)c(-c4ccccc4F)c3)c3nc4n(c3n2)C(C)(C)CO4)c1 [Example 23]
- Static (vs veh): fold increase of platelet production efficiency (PLT/MK) [1]: 8.0
- IC50 [2]: 9.6 nM

Compound: Cc1cncc(-c2nc(NCCc3ccc(O)c(-c4cccc(F)c4)c3)c3nc4n(c3n2)C(C)(C)CO4)c1 [Example 24]
- Static (vs veh): fold increase of platelet production efficiency (PLT/MK) [1]: 7.7
- IC50 [2]: 3.9 nM

Compound: Cc1cncc(-c2nc(NCCc3ccc(O)c(-c4ccc(F)cc4)c3)c3nc4n(c3n2)C(C)(C)CO4)c1 [Example 25]
- Static (vs veh): fold increase of platelet production efficiency (PLT/MK) [1]: 5.7
- IC50 [2]: 4.4 nM

Compound: Cc1cncc(-c2nc(NCCc3ccc(O)c(-c4ccccc4F)c3)c3nc4n(c3n2)C(C)(C)CS4)c1 [Example 26]
- Static (vs veh): fold increase of platelet production efficiency (PLT/MK) [1]: 5.0
- IC50 [2]: 1 nM

Compound: Cc1cncc(-c2nc(NCCc3ccc(O)c(-c4cccc(F)c4)c3)c3nc4n(c3n2)C(C)(C)CS4)c1 [Example 27]
- Static (vs veh): fold increase of platelet production efficiency (PLT/MK) [1]: 6.0
- IC50 [2]: 0.35 nM

Compound: C[C@@H]1CSc2nc3c(NCCc4ccc(O)c(-c5ccccc5F)c4)nc(-c4cncc(F)c4)nc3n21 [Example 28]
- Static (vs veh): fold increase of platelet production efficiency (PLT/MK) [1]: 9.7
- IC50 [2]: 0.4 nM

Compound: C[C@@H]1CSc2nc3c(NCCc4ccc(O)c(-c5cccc(F)c5)c4)nc(-c4cncc(F)c4)nc3n21 [Example 29]
- Static (vs veh): fold increase of platelet production efficiency (PLT/MK) [1]: 8.4
- IC50 [2]: 0.37 nM

Compound: C[C@H]1CSc2nc3c(NCCc4ccc(O)c(-c5ccccc5F)c4)nc(-c4cncc(F)c4)nc3n21 [Example 30]
- Static (vs veh): fold increase of platelet production efficiency (PLT/MK) [1]: 6.7
- IC50 [2]: 0.78 nM

Compound: C[C@H]1CSc2nc3c(NCCc4ccc(O)c(-c5cccc(F)c5)c4)nc(-c4cncc(F)c4)nc3n21 [Example 31]
- Static (vs veh): fold increase of platelet production efficiency (PLT/MK) [1]: 5.9
- IC50 [2]: 0.46 nM

Compound: CC1(C)COc2nc3c(NCCc4ccc(O)c(-c5cccnc5)c4)nc(-c4cncc(F)c4)nc3n21 [Example 32, 4-[2-[[2-(5-fluoropyridin-3-yl)-8,8-dimethyl-7H-purino[8,9-b][1,3]oxazol-4-yl]amino]ethyl]-2-pyridin-3-ylphenol]
- Static (vs veh): fold increase of platelet production efficiency (PLT/MK) [1]: 6.8
- IC50 [2]: 29 nM

Compound: CC1(C)COc2nc3c(NCCc4ccc(O)c(-c5csc6ccccc56)c4)nc(-c4cncc(F)c4)nc3n21 [Example 35]
- Static (vs veh): fold increase of platelet production efficiency (PLT/MK) [1]: 6.0
- IC50 [2]: 12 nM

Compound: CC1(C)COc2nc3c(NCCc4ccc(O)c(-c5cccc(F)c5)c4)nc(-c4cncc(C#N)c4)nc3n21 [Example 36]
- Static (vs veh): fold increase of platelet production efficiency (PLT/MK) [1]: 2.7
- IC50 [2]: 0.7 nM

Compound: CC1(C)CSc2nc3c(NCCc4ccc(O)c(-c5cccc(F)c5)c4)nc(-c4cncc(C#N)c4)nc3n21 [Example 37]
- Static (vs veh): fold increase of platelet production efficiency (PLT/MK) [1]: 2.1
- IC50 [2]: 0.53 nM

Compound: CC1(C)CSc2nc3c(NCCc4ccc(O)c(-c5ccccc5F)c4)nc(-c4cncc(C#N)c4)nc3n21 [Example 38]
- Static (vs veh): fold increase of platelet production efficiency (PLT/MK) [1]: 4.9
- IC50 [2]: 0.49 nM

Compound: C[C@@H]1CSc2nc3c(NCCc4ccc(O)c(-c5ccccc5F)c4)nc(-c4cncc(C#N)c4)nc3n21 [Example 39]
- Static (vs veh): fold increase of platelet production efficiency (PLT/MK) [1]: 4.3
- IC50 [2]: 1.2 nM

Compound: Cc1ccccc1-c1cc(CCNc2nc(-c3cncc(F)c3)nc3c2nc2n3C(C)(C)CO2)ccc1O [Example 40]
- Static (vs veh): fold increase of platelet production efficiency (PLT/MK) [1]: 9.8
- IC50 [2]: 40 nM

Compound: COc1ccccc1-c1cc(CCNc2nc(-c3cncc(F)c3)nc3c2nc2n3C(C)(C)CO2)ccc1O [Example 41]
- Static (vs veh): fold increase of platelet production efficiency (PLT/MK) [1]: 7.0
- IC50 [2]: 10 nM

Compound: CC1(C)COc2nc3c(NCCc4ccc(O)c(-c5ccc(F)cc5F)c4)nc(-c4cncc(F)c4)nc3n21 [Example 42]
- Static (vs veh): fold increase of platelet production efficiency (PLT/MK) [1]: 4.8
- IC50 [2]: 6.1 nM
